Measured values taken from patent US11225465B2, “Albicidin derivatives, their use and synthesis” (TECHNISCHE UNIVERSITÄT BERLIN, priority 2017, dated 2022).
Converted amounts (≈) assume the structure as drawn. Like-named read-outs stand apart in the source and are kept apart here.

Assays:
[1] = test system: S. typhimurium TA100; assay: Microdilution assay, MIC; type: cell-based; conditions: Salmonella enterica, 20 h, read-out: MIC S. typhimurium TA100
Procedure: (§1) The tests were performed using the micro dilution method.
(§2) The determination of MIC values was performed according to the ninth edition of the Approved Standard M07-A9 (CLSI. Methods for Dilution Antimicrobial Susceptibility Tests for Bacteria That Grow Aerobically; Approved Standard—Ninth Edition. CLSI document M07-A9. Wayne, Pa.: Clinical and Laboratory Standards Institute; 2012.)
(§3) The test was carried out for four different bacterial strains (E. coli DSM 1116 [gram negative], B. subtilis DSM 10 [gram positive], M. luteus DSM 1790 [gram positive], S. typhimurium TA100 [gram negative]). 20 μL of cryo stock of each strain were inoculated in 20 mL of LB media (Lysogeny broth: 10 g/L peptone, 5 g/L yeast extract, 5 g/L NaCl) followed by incubation over night at 37° C., 200 rpm. The test inoculum was adjusted by the 0.5 McFarland Standard (OD625 from 0.08 to 0.1). Within 15 min of preparation, the adjusted inoculum suspension was diluted in MHBII media (BBL T M Mueller-Hinton Broth II, Becton, Dickinson and Company, N.J./USA) so that each well contained approximately 5×10^5 CFU/mL in a final volume of 100 μL. 95 μL of the inoculum were applied per well and 5 μL of the (diluted) antibiotic substance were added.
(§4) Previously the dry antibiotic compounds were dissolved in DMSO (100%) with a concentration of 2560 μg/mL and the resulting stock solutions were further diluted in DMSO (100%). 5 μL of each antibiotic dilution were applied to the microdilution tray to reach final concentrations of 64 μg/mL to 0.008 μg/mL. One row of each well plate was left as a growth control without antibiotic substances and another row of the microdilution tray was used as sterility control (only MHB II-media). The antimicrobial effect of the solvent (DMSO) was tested by adding 5 μL DMSO to several wells without antibiotics.
(§5) Purity check and cell titer control were performed according to International Standard M07-A9 on Mueller-Hinton II Agar (Mueller Hinton II Broth, 15 g/L agar-agar).
(§6) Both microdilution trays and agar plates were incubated at 37° C. for 20 h and subsequently analyzed visually.

[2] = test system: Micrococcus luteus DSM1790; assay: Microdilution assay, MIC; type: cell-based; conditions: read-out: MIC M. luteus DSM1790
Procedure: as §1, §2, §3, §4, §5, §6

[3] = test system: Bacillus subtilis DSM10; assay: Microdilution assay, MIC; type: cell-based; conditions: read-out: MIC B. subtilis DSM10
Procedure: as §1, §2, §3, §4, §5, §6

[4] = test system: E. coli DSM 1116; assay: Microdilution assay, MIC; type: cell-based; conditions: Escherichia coli, read-out: MIC E. coli DSM1116
Procedure: as §1, §2, §3, §4, §5, §6

[5] = test system: Pseudomonas aeruginosa ATCC 27853; conditions: n.a. for the compounds; cited from earlier work
[6] = test system: Staphylococcus aureus ATCC 29213; conditions: n.a. for the compounds; cited from earlier work
[7] = test system: Escherichia coli ATCC 25922; conditions: n.a. for the compounds; cited from earlier work
[8] = test system: Escherichia coli ATCC 25922; assay: MHK against further strains (Table 2); type: cell-based; conditions: Nr. 1 Escherichia coli ATCC 25922; KBE/ml 2.80E+05
Procedure: as §1, §2

[9] = test system: Pseudomonas aeruginosa ATCC 27853; assay: MHK against further strains (Table 2); type: cell-based; conditions: Nr. 6 Pseudomonas aeruginosa ATCC 27853; KBE/ml 5.60E+05
Procedure: as §1, §2

[10] = test system: Staphylococcus aureus ATCC 29213; assay: MHK against further strains (Table 2); type: cell-based; conditions: Nr. 8 Staphylococcus aureus ATCC 29213; KBE/ml 6.60E+05
Procedure: as §1, §2

Compound	MIC [1]	MIC ([2]; DSM1790, 20 h)	MIC ([3]; DSM10, 20 h)	MIC ([4]; DSM1116, 20 h)	further results
COc1c(NC(=O)c2ccc(NC(=O)c3ccc(NC(=O)[C@H](CC#N)NC(=O)c4ccc(NC(=O)/C(C)=C/c5ccc(O)cc5)cc4)cc3)c(OC)c2O)ccc(C(=O)O)c1O [Albicidin]	63 µg/mL (≈ 74.7 µM)	1000 µg/mL (≈ 1190 µM)	250 µg/mL (≈ 297 µM)	63 µg/mL (≈ 74.7 µM)	
O=C(O)c1cn(C2CC2)c2cc(N3CCNCC3)c(F)cc2c1=O [CIP, reference compound]					MHK range (unlabelled line below the ATCC strain) [5]: 0.25 to 1 mg/L; MHK range (unlabelled line below the ATCC strain) [6]: 0.12 to 0.5 mg/L; MHK range (unlabelled line below the ATCC strain) [7]: 0.004 to 0.015 mg/L; MHK [8]: 0.015 mg/L; MHK [9]: 0.5 mg/L; MHK [10]: 0.5 mg/L
COc1c(NC(=O)c2ccc(NC(=O)c3ccc(NC(=O)C(CN4CCOCC4)NC(=O)c4ccc(NC(=O)/C(C)=C/c5ccc(O)cc5)cc4)cc3)c(OC)c2O)ccc(C(=O)O)c1O [Compound 4, L-Morpholino-Albicidin]	63 µg/mL (≈ 69.8 µM)	8000 µg/mL (≈ 8860 µM)	250 µg/mL (≈ 277 µM)	500 µg/mL (≈ 554 µM)	
COc1c(NC(=O)c2ccc(NC(=O)c3ccc(NC(=O)C(Cc4cn(C)cn4)NC(=O)c4ccc(NC(=O)/C(C)=C/c5ccc(O)cc5)cc4)cc3)c(OC)c2O)ccc(C(=O)O)c1O [Compound 5, L-Methyl-His-Albicidin]	63 µg/mL (≈ 70.2 µM)	4000 µg/mL (≈ 4450 µM)	500 µg/mL (≈ 557 µM)	125 µg/mL (≈ 139 µM)	
COc1c(NC(=O)c2ccc(NC(=O)c3ccc(NC(=O)C4(NC(=O)c5ccc(NC(=O)/C(C)=C/c6ccc(O)cc6)cc5)CCN(C)CC4)cc3)c(OC)c2O)ccc(C(=O)O)c1O [Compound 6, N-Methylpiperidino-Albicidin]	2000 µg/mL (≈ 2260 µM)	≥ 8000 µg/mL	≥ 8000 µg/mL	2000 µg/mL (≈ 2260 µM)	
COc1c(NC(=O)c2ccc(NC(=O)c3ccc(NC(=O)[C@H](Cc4ccccn4)NC(=O)c4ccc(NC(=O)/C(C)=C/c5ccc(O)cc5)cc4)cc3)c(OC)c2O)ccc(C(=O)O)c1O [Compound 7, L-2-Py-Albicidin]	125 µg/mL (≈ 140 µM)	2000 µg/mL (≈ 2230 µM)	250 µg/mL (≈ 279 µM)	250 µg/mL (≈ 279 µM)	
COc1c(NC(=O)c2ccc(NC(=O)c3ccc(NC(=O)[C@H](Cc4cccnc4)NC(=O)c4ccc(NC(=O)/C(C)=C/c5ccc(O)cc5)cc4)cc3)c(OC)c2O)ccc(C(=O)O)c1O [Compound 8]		1000 µg/mL (≈ 1120 µM)	500 µg/mL (≈ 559 µM)	250 µg/mL (≈ 279 µM)	
COc1c(NC(=O)c2ccc(NC(=O)c3ccc(NC(=O)[C@H](Cc4ccncc4)NC(=O)c4ccc(NC(=O)/C(C)=C/c5ccc(O)cc5)cc4)cc3)c(OC)c2O)ccc(C(=O)O)c1O [Compound 9]	125 µg/mL (≈ 140 µM)	8000 µg/mL (≈ 8940 µM)	2000 µg/mL (≈ 2230 µM)	500 µg/mL (≈ 559 µM)	
C#CCOc1ccc(/C=C(\C)C(=O)Nc2ccc(C(=O)NC(CC3(C)N=N3)C(=O)Nc3ccc(C(=O)Nc4ccc(C(=O)Nc5ccc(C(=O)O)c(O)c5OC)c(O)c4OC)cc3)cc2)cc1 (centres unmarked) [Compound 10]	≤ 16 µg/mL	250 µg/mL (≈ 275 µM)	125 µg/mL (≈ 137 µM)	63 µg/mL (≈ 69.2 µM)	
C#CCOc1ccc(C(=O)Nc2ccc(C(=O)NC(CC3(C)N=N3)C(=O)Nc3ccc(C(=O)Nc4ccc(C(=O)Nc5ccc(C(=O)O)c(O)c5OC)c(O)c4OC)cc3)cc2)cc1 (centres unmarked) [Compound 11]	16 µg/mL (≈ 18.4 µM)	125 µg/mL (≈ 144 µM)	125 µg/mL (≈ 144 µM)	63 µg/mL (≈ 72.4 µM)	
C/C(=C\c1ccc(O)cc1)C(=O)Nc1ccc(C(=O)N[C@@H](CC#N)C(=O)Nc2ccc(C(=O)Nc3ccc(C(=O)Nc4ccc(C(=O)O)c(O)c4)c(O)c3)cc2)cc1 [Compound 12, HMZS-pABA-L-Cya-pABA-HpABA-HpABA-OH]	4000 µg/mL (≈ 5110 µM)	32000 µg/mL (≈ 40900 µM)		16000 µg/mL (≈ 20400 µM)	
COc1c(NC(=O)c2ccc(NC(=O)c3ccc(NC(=O)[C@H](CC#N)NC(=O)c4ccc(NC(=O)/C(C)=C/c5ccc(O)cc5)cc4)c(O)c3)c(OC)c2O)ccc(C(=O)O)c1O [Compound 13]	500 µg/mL (≈ 582 µM)		2000 µg/mL (≈ 2330 µM)	2000 µg/mL (≈ 2330 µM)	
COc1c(NC(=O)c2ccc(NC(=O)c3ccc(NC(=O)[C@H](CC#N)NC(=O)c4ccc(NC(=O)/C(C)=C/c5ccc(O)cc5)cc4)cc3O)c(OC)c2O)ccc(C(=O)O)c1O [Compound 14]	16 µg/mL (≈ 18.6 µM)		250 µg/mL (≈ 291 µM)	31 µg/mL (≈ 36.1 µM)	
COc1c(NC(=O)c2ccc(NC(=O)c3ccc(NC(=O)[C@@H](Cc4c[nH]cn4)NC(=O)c4ccc(NC(=O)/C(C)=C/c5ccc(O)cc5)cc4)cc3)c(OC)c2O)ccc(C(=O)O)c1O [Compound 15, D-His-albicidin]	125 µg/mL (≈ 141 µM)	8000 µg/mL (≈ 9050 µM)	1000 µg/mL (≈ 1130 µM)	125 µg/mL (≈ 141 µM)	
COc1c(NC(=O)c2ccc(NC(=O)c3ccc(NC(=O)[C@H](Cc4c[nH]nn4)NC(=O)c4ccc(NC(=O)/C(C)=C/c5ccc(F)cc5)cc4)cc3)c(OC)c2O)ccc(C(=O)O)c1O [Compound 18]	≤ 16 µg/mL	250 µg/mL (≈ 282 µM)	125 µg/mL (≈ 141 µM)	31 µg/mL (≈ 35 µM)	
COc1c(NC(=O)c2ccc(NC(=O)c3ccc(NC(=O)[C@H](CN(C)C)NC(=O)c4ccc(NC(=O)c5ccc(O)cc5)cc4)cc3)c(OC)c2O)ccc(C(=O)O)c1O [Compound 19]	500 µg/mL (≈ 609 µM)	≥ 8000 µg/mL	4000 µg/mL (≈ 4870 µM)	2000 µg/mL (≈ 2440 µM)	
CCOc1c(NC(=O)c2ccc(NC(=O)c3ccc(NC(=O)[C@H](Cc4c[nH]nn4)NC(=O)c4ccc(NC(=O)/C(C)=C/c5ccc(O)cc5)cc4)cc3)c(OCC)c2O)ccc(C(=O)O)c1O [Compound 20]	16 µg/mL (≈ 17.5 µM)	500 µg/mL (≈ 548 µM)	31 µg/mL (≈ 34 µM)	16 µg/mL (≈ 17.5 µM)	
COc1c(NC(=O)c2ccc(NC(=O)c3ccc(N(C)C(=O)[C@H](Cc4c[nH]nn4)NC(=O)c4ccc(NC(=O)/C(C)=C/c5ccc(O)cc5)cc4)cc3)c(OC)c2O)ccc(C(=O)O)c1O [Compound 22]	2000 µg/mL (≈ 2220 µM)	≥ 8000 µg/mL	≥ 8000 µg/mL	≥ 8000 µg/mL	
COc1c(NC(=O)c2ccc(NC(=O)c3ccc(NC(=O)[C@H](Cc4c[nH]nn4)NC(=O)c4ccc(NC(=O)/C(C)=C/c5ccc(O)cc5)cc4)c(OC)c3O)c(OC)c2O)ccc(C(=O)O)c1O [Compound 23]	2000 µg/mL (≈ 2150 µM)	≥ 8000 µg/mL	≥ 8000 µg/mL	≥ 8000 µg/mL	
COc1c(NC(=O)c2ccc(NC(=O)c3ccc(NC(=O)[C@H](Cc4cnn[nH]4)NC(=O)c4ccc(NC(=O)/C(C)=C/c5ccc(O)cc5)cc4)c(O)c3)c(OC)c2O)ccc(C(=O)O)c1O [Compound 24]	63 µg/mL (≈ 69.9 µM)	8000 µg/mL (≈ 8880 µM)	1000 µg/mL (≈ 1110 µM)	125 µg/mL (≈ 139 µM)	
COc1c(NC(=O)c2ccc(NC(=O)c3ccc(NC(=O)[C@H](Cc4cnn[nH]4)NC(=O)c4ccc(NC(=O)/C(C)=C/c5ccc(O)cc5)cc4)cc3O)c(OC)c2O)ccc(C(=O)O)c1O [Compound 25]	16 µg/mL (≈ 17.8 µM)	4000 µg/mL (≈ 4440 µM)	250 µg/mL (≈ 278 µM)	31 µg/mL (≈ 34.4 µM)	
COc1ccc(C#Cc2ccc(C(=O)N[C@@H](Cc3c[nH]nn3)C(=O)Nc3ccc(C(=O)Nc4ccc(C(=O)Nc5ccc(C(=O)O)c(O)c5OC)c(O)c4OC)cc3)cc2)cc1 [Compound 26]					MIC ([1]; gram negative, MHBII media, 37° C.): ≤ 16 µg/mL; MIC ([2]; DSM1790, gram positive, MHBII media, 37° C., 20 h): 500 µg/mL (≈ 595 µM); MIC ([3]; DSM10, gram positive, MHBII media, 37° C., 20 h): 250 µg/mL (≈ 298 µM); MIC ([4]; DSM1116, gram negative, MHBII media, 37° C., 20 h): 63 µg/mL (≈ 75 µM)
